Measurements from US6566047B1, “Method for identifying neurite-growth promoting agents” (The Regents of the University of Colorado, priority 1998, dated 2003).

System: 12-Lox
Assay: Eicosanoid (HETE) generation in GCPs
Format: biochemical, rat
Experimental: Eicosanoid Assays. Eicosanoid production in GCPs was measured by metabolic labelling from ^14C-AA or ^14C-AA-PC or by mass spectrometric detection. […] To measure Lox activity directly, without PLA2 involvement, ^3H-AA was the substrate of choice. Reactions were stopped by the addition of chloroform/methanol as for the phospholipase assays. Reaction products were extracted as described by Birkle et al., Neuromethods, vol. 7, pp.227-244 (Humana Press, N.J. 1988), spotted on pre-activated si gel 60 TLC plates, and the plates developed in the upper phase of ethyl acetate/isooctane/acetic acid/water (100:60:20:100). AA and HETEs were identified by co-migration with standards. Appropriate bands were counted by liquid scintillation spectrometry.
For mass-spectrometric (MS) identification of HETEs, two different strategies were pursued:
(1) the appropriate bands from non-labelled samples (PC substrate) were scraped from the TLC plate into ether/methanol (9:1) and stored under N2 at −20° C. Authentic 12(S)-HETE, run alongside in the same manner, was used as a standard. Just prior to analysis, samples were passed over an SPE filter to eliminate silica particles, dried under argon, resuspended in 500 μl ethanol, and injected (at 3 μl/min) into a Finnigan LCQ quadrupole ion trap mass spectrometer (Finnigan MAT, San Jose, Calif.) equipped with an electrospray ionization source. All spectra were acquired at a capillary temperature of 80° C., and ion guide voltages were tuned to maximize the abundance of the deprotonated ion species [M-H]^− in negative mode. In order to generate a spectrum, typically 100 single scans were averaged.
(2) For the other strategy (liquid chromatography/tandem MS, LC/MS^2), the reaction substrate consisted of 3.5 μM AA, with the addition of 3.5 μM deuterated AA (AA-D8) plus 1 μCi ^3H-AA to track reaction products by mass and radioactivity, respectively. Reactions were stopped with ice-cold ethanol, the mixtures kept overnight at −20° C. under N2, and the proteins spun out The supernatants were diluted with H2O and loaded onto 1-ml C18 Sep-Pak columns (Varian). After washing with H2O, eicosanoid was eluted with 2 ml methanol. These samples were resolved by reverse-phase HPLC, and the eluted fractions analyzed by tandem MS on-line (MacMillan and Murphy, 1995). Collision-induced decomposition of HETE isomers produced characteristic fragments that were identified at the second MS stage.

## thrombin: potent growth cone repellent; commercially available thrombin (Sigma); rat thrombin in Boyden assays
3H-AA substrate
  effect on HETE production from AA: does indeed stimulate HETE production from AA
14C-AA-PC substrate, thrombin 100 nM
  increase of radioactivity co-migrating with 12-HETE above control: approximately 2.5 fold
GCPs first stimulated with thrombin
  increase of MS peak at m/z 381 in TLC band co-migrating with 12(S)-HETE: ~2 fold
Growth cones stimulated with thrombin
  increase in generation of compound co-migrating with 12(S)-HETE from 14C-AA-labelled phospholipid, relative to controls: 4-8 fold
